Laboratory results: PubChem BioAssay AID434987 (Southern Research Specialized Biocontainment Screening …, 2010)
pIC50: −log10 of the molar value. Calls of active or inactive are those of the source. The rule behind the calls is not given here.

System: M. tuberculosis H37Rv growth inhibition with meropenem
Test: dose response, H37Rv, with and without meropenem (AID 434987);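 note: growth over 7 days at 37 °C before Alamar Blue read on day 9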
[1] = M. tuberculosis H37Rv growth inhibition, measured here: IC50 without meropenem
[2] = M. tuberculosis H37Rv growth inhibition, measured here: IC90 without meropenem
[3] = measured here: IC90 with meropenem

COc1ccc2oc(C(=O)Nc3nc4ccccc4[nH]3)c(C)c2c1
pIC50: 5.77 | pIC50 [1]: 4.43 | IC90 [2]: > 100 µM | IC90 [3]: > 100 µM

Cn1c2ccccc2c(=O)c2cc(C#CC3(O)CCCCC3)ccc21
IC50: > 100 µM (inactive) | pIC50 [1]: < 4.00 | IC90 [2]: > 100 µM | IC90 [3]: > 100 µM

O=C(O)c1cc(-c2ccco2)nc2ccc(Br)cc12
IC50: > 100 µM (inactive) | pIC50 [1]: < 4.00 | IC90 [2]: > 100 µM | IC90 [3]: > 100 µM

CC(=O)Nc1ccc(S(=O)(=O)Nc2cccc3cccnc23)cc1
IC50: 13.2 µM (inactive) | pIC50 [1]: 4.67 | IC90 [2]: > 100 µM | IC90 [3]: 43.3 µM

CC(C)(C)NCCCOc1ccc(Cl)cc1C(C)(C)C
IC50: 24.8 µM (inactive) | pIC50 [1]: 4.34 | IC90 [2]: 51.6 µM | IC90 [3]: 26.9 µM

CSc1ccc(CCNC(=O)c2cc(C)nn2-c2ccccc2)cc1
IC50: > 100 µM (inactive) | pIC50 [1]: < 4.00 | IC90 [2]: > 100 µM | IC90 [3]: > 100 µM

Cc1ccc(SCCNC(=O)c2ccc(C)c([N+](=O)[O-])c2)cc1
IC50: 49.6 µM (inactive) | pIC50 [1]: < 4.00 | IC90 [2]: > 100 µM | IC90 [3]: 54 µM

O=C(CN1CCN(S(=O)(=O)c2ccc(F)cc2)CC1)Nc1ccc2c(c1)OCCO2
pIC50: 4.72 | pIC50 [1]: 4.05 | IC90 [2]: > 100 µM | IC90 [3]: > 100 µM

CCOC(=O)CNC(=O)CSc1ncnc2c1cnn2Cc1ccccc1
IC50: > 100 µM (inactive) | pIC50 [1]: < 4.00 | IC90 [2]: > 100 µM | IC90 [3]: > 100 µM

CN(C)S(=O)(=O)c1ccc(NC(=O)c2cc3ccccc3o2)cc1
IC50: > 100 µM (inactive) | pIC50 [1]: < 4.00 | IC90 [2]: > 100 µM | IC90 [3]: > 100 µM

CC(C)(C)OC(=O)N1CCC(NC(=O)c2[nH]cnc2C(=O)Nc2ccccc2)CC1
IC50: > 100 µM (inactive) | pIC50 [1]: < 4.00 | IC90 [2]: > 100 µM | IC90 [3]: > 100 µM

CCOc1ccc2nc(SC3CC(=O)N(c4cccc(OC)c4)C3=O)sc2c1 (stereo not drawn)
IC50: 23.5 µM (inactive) | pIC50 [1]: 4.35 | IC90 [2]: 49.9 µM | IC90 [3]: 25.7 µM

COc1ccc(Br)cc1/C=N/NC(=O)CNC(=O)/C=C/c1ccccc1
IC50: > 100 µM (inactive) | pIC50 [1]: < 4.00 | IC90 [2]: > 100 µM | IC90 [3]: > 100 µM

Cc1[nH]c2c(C)cccc2c1CCNC(=O)c1ccc2c(c1[N+](=O)[O-])C(=O)c1ccccc1C2=O
IC50: > 100 µM (inactive) | pIC50 [1]: < 4.00 | IC90 [2]: > 100 µM | IC90 [3]: > 100 µM

c1ccc2c(c1)CC1CNCc3cccc(c31)S2 (stereo not drawn)
IC50: 47.4 µM (inactive) | pIC50 [1]: < 4.00 | IC90 [2]: > 100 µM | IC90 [3]: > 100 µM

O=C(C1=C[C@H](c2ccc(Br)cc2)C[C@H](OCCCCO)O1)N1CCN(Cc2ccc3c(c2)OCO3)CC1
IC50: 49.4 µM (inactive) | pIC50 [1]: 4.19 | IC90 [2]: 88 µM | IC90 [3]: > 100 µM

O=C(Oc1c(-c2ccccc2)c(=O)n2c3c(cccc13)CC2)c1ccc(F)cc1
pIC50: 5.21 | pIC50 [1]: 4.27 | IC90 [2]: > 100 µM | IC90 [3]: 34 µM

COc1ccc(OC)c(NC(=O)CS(=O)(=O)c2ccccc2)c1
IC50: 12.1 µM (inactive) | pIC50 [1]: 4.54 | IC90 [2]: > 100 µM | IC90 [3]: 14.3 µM

CCc1nc2scc(-c3cccs3)c2c(=O)o1
IC50: > 100 µM (inactive) | pIC50 [1]: < 4.00 | IC90 [2]: > 100 µM | IC90 [3]: > 100 µM

C=CCSc1nnc2c(n1)OC(c1c(C)[nH]n(-c3ccccc3)c1=O)Nc1ccccc1-2 (stereo not drawn)
pIC50: 4.55 | pIC50 [1]: < 4.00 | IC90 [2]: > 100 µM | IC90 [3]: > 100 µM

COc1ccc(C(=O)NC(=S)Nc2ccc(S(=O)(=O)Nc3cc(C)on3)cc2)cc1OC
pIC50: 4.86 | pIC50 [1]: 4.44 | IC90 [2]: > 100 µM | IC90 [3]: 29 µM

Cc1cc2ccccc2n1CCNC(=O)COc1ccccc1
IC50: 30.1 µM (inactive) | pIC50 [1]: 4.35 | IC90 [2]: 60.3 µM | IC90 [3]: 42.8 µM

Cc1cc(C)cc(NC(=O)c2cc(Cl)sc2Cl)c1
pIC50: 5.32 | pIC50 [1]: < 4.00 | IC90 [2]: > 100 µM | IC90 [3]: 7.73 µM

COCCSc1nc2sc3c(c2c(=O)n1-c1ccccc1)CCN(C)C3
IC50: 38.1 µM (inactive) | pIC50 [1]: 4.38 | IC90 [2]: 54.3 µM | IC90 [3]: 53.3 µM

CCOC(=O)CSc1nnc(CNC(=O)c2cccs2)n1CCc1ccccc1
IC50: 20.1 µM (inactive) | pIC50 [1]: 4.45 | IC90 [2]: 55.8 µM | IC90 [3]: 49.5 µM

Cc1nc(SCC(=O)Nc2ccc(F)cc2)c(C#N)c(C)c1CC(=O)c1ccc(Br)cc1
IC50: > 100 µM (inactive) | pIC50 [1]: < 4.00 | IC90 [2]: > 100 µM | IC90 [3]: > 100 µM

Cc1sc2nc(C(C)Nc3ccccc3N3CCOCC3)[nH]c(=O)c2c1C (stereo not drawn)
IC50: > 100 µM (inactive) | pIC50 [1]: < 4.00 | IC90 [2]: > 100 µM | IC90 [3]: > 100 µM

O=C(NCc1nc2ncc(Br)cc2[nH]1)c1ccccc1
IC50: 49.2 µM (inactive) | pIC50 [1]: 4.03 | IC90 [2]: > 100 µM | IC90 [3]: 54.9 µM

CCOc1cc(/C=N\Nc2ccc([N+](=O)[O-])cc2)ccc1OCC(=O)Nc1ccc(C)c(C)c1
pIC50: 5.22 | pIC50 [1]: < 4.00 | IC90 [2]: > 100 µM | IC90 [3]: > 12.5 µM

CCC(=O)NC(=S)Nc1ccc(NC(=O)c2cccc([N+](=O)[O-])c2C)cc1
IC50: > 100 µM (inactive) | pIC50 [1]: < 4.00 | IC90 [2]: > 100 µM | IC90 [3]: > 100 µM

COc1cc(C(=O)N/N=C/c2ccc(OC(=O)c3cccc(C)c3)cc2)ccc1O
pIC50: 5.34 | pIC50 [1]: 4.11 | IC90 [2]: > 100 µM | IC90 [3]: 53.4 µM

COc1ccc(C(=O)Nc2cccc3c2CCCC3)c(OC)c1
pIC50: 4.63 | pIC50 [1]: < 4.00 | IC90 [2]: > 100 µM | IC90 [3]: > 100 µM

COc1cc(C(=O)Nc2cccc(-c3cn4cccnc4n3)c2)cc(OC)c1OC
pIC50: 4.96 | pIC50 [1]: 4.46 | IC90 [2]: > 100 µM | IC90 [3]: 30.2 µM

COC(=O)c1ccc(/C=N/NC(=O)c2cccc(F)c2)cc1
IC50: > 100 µM (inactive) | pIC50 [1]: < 4.00 | IC90 [2]: > 100 µM | IC90 [3]: > 100 µM

COc1ccccc1N1CCN(/N=C/c2cccc(OC)c2OC)CC1
IC50: > 100 µM (inactive) | pIC50 [1]: < 4.00 | IC90 [2]: > 100 µM | IC90 [3]: > 100 µM

O=C(c1csc2c1CCCC2)n1cccn1
IC50: 49.4 µM (inactive) | pIC50 [1]: 4.01 | IC90 [2]: > 100 µM | IC90 [3]: > 100 µM

O=C1C2CCN(CC2)C1Cc1ccc(OCCOc2ccccc2)cc1 (stereo not drawn)
IC50: > 100 µM (inactive) | pIC50 [1]: < 4.00 | IC90 [2]: > 100 µM | IC90 [3]: > 100 µM

CCCN1C(=O)c2ccc(C(=O)Nc3cc(C)on3)cc2C1=O
IC50: > 100 µM (inactive) | pIC50 [1]: < 4.00 | IC90 [2]: > 100 µM | IC90 [3]: > 100 µM

O=C(NCc1cccs1)c1cc(-c2ccccc2)nc2ccccc12
IC50: > 100 µM (inactive) | pIC50 [1]: < 4.00 | IC90 [2]: > 100 µM | IC90 [3]: > 100 µM

COc1ccccc1/C=N/NC(=S)Nc1cccnc1
pIC50: 4.51 | pIC50 [1]: < 4.00 | IC90 [2]: > 100 µM | IC90 [3]: > 50 µM

COc1ccc2[nH]cc(C(=O)CCl)c2c1
pIC50: 5.57 | pIC50 [1]: 5.02 | IC90 [2]: 31 µM | IC90 [3]: > 100 µM

CCOC(=O)c1sc2ccccc2c1NC(=O)c1coc2ccccc2c1=O
IC50: > 100 µM (inactive) | pIC50 [1]: < 4.00 | IC90 [2]: > 100 µM | IC90 [3]: > 100 µM
